Results as given in patent publication US8779161B2, “Asenapine maleate” (Dr. Reddy's Laboratories Limited, priority 2010, dated 2014).

Key:
[1] = Particle size distribution d(10), d(50), d(90); type: physicochemical
Description: For example, particle size distributions of asenapine maleate particles may be measured using microscopy or light scattering equipment, such as, for example, a Malvern Master Size 2000 from Malvern Instruments Limited, Malvern, Worcestershire, United Kingdom. The particle size distributions can be expressed, for example, in terms of d(90), d(50), and d(10) values, where the values (e.g., expressed in μm) are the maximum sizes for 90, 50, and 10 percent of the particles, respectively.
Polymorphs are different solids sharing the same molecular formula, yet having distinct physical properties when compared to other polymorphs of the same formula. As used throughout the disclosure, the D(10), D(50), and D(90) values are useful ways for indicating a particle size distribution. D(90) refers to at least 90 volume percent of the particles having a size smaller than the said value. Likewise, D(10) refers to 10 volume percent of the particles having a size smaller than the said value. D(50) refers to 50 volume percent of the particles having a size smaller than the said value. Methods for determining D(10), D(50), and D(90) include laser diffraction, such as using equipment from Malvern Instruments Ltd. of Malvern, Worcestershire, United Kingdom. HPLC is High Pressure Liquid Chromatography.

[2] = starting with the monoclinic form; WO 2006/106135 A1, Examples 9 and 10 therein; cited from earlier work
[3] = Micronization of asenapine maleate monoclinic form: polymorphic form by PXRD after micronizing; type: physicochemical; conditions: Midas Micronizer 50, nitrogen carrier gas, 4-6 Kg/cm^2; compared with reference pattern of monoclinic polymorph
Description: All PXRD data reported herein are obtained using a Bruker AXS D8 Advance Powder X-ray Diffractometer or a PANalytical X-ray Diffractometer, using copper Kα radiation. Generally, a diffraction angle (2θ) in powder X-ray diffractometry may have permissible variation in the range of ±0.2°. Although the intensities of peaks in the x-ray powder diffraction patterns of different batches of a compound may vary slightly, the peaks and the peak locations are characteristic for a specific polymorphic form. The relative intensities of the PXRD peaks can vary depending on the sample preparation technique, crystal size distribution, various filters used, the sample mounting procedure, and the particular instrument employed. Moreover, instrument variation and other factors can affect the 2-theta values. Therefore, the term “substantially” in the context of PXRD is meant to encompass that peak assignments can vary by plus or minus about 0.2° 2-theta.

[4] = before micronization (as isolated)
[5] = after micronization, Midas Micronizer 50, nitrogen 4-6 Kg/cm^2

| SMILES | particle size distribution d(90) [1, 4] | particle size distribution d(10) [1, 5] | particle size distribution d(50) [1, 5] | particle size distribution d(90) [1, 5] | particle size distribution d(10) [1, 4] | particle size distribution d(50) [1, 4] | polymorphic form obtained after micronization [2] | PXRD Pattern after Micronizing [3] |
| --- | --- | --- | --- | --- | --- | --- | --- | --- |
| CN1C[C@H]2c3ccccc3Oc3ccc(Cl)cc3[C@@H]2C1.O=C(O)/C=C\C(=O)O [Example 11, Asenapine Maleate Monoclinic Form] | 58.716 μm | 0.994 μm | 5.516 μm | 12.715 μm | 5.671 μm | 24.077 μm |  |  |
| CN1C[C@H]2c3ccccc3Oc3ccc(Cl)cc3[C@@H]2C1.O=C(O)/C=C\C(=O)O [form H, asenapine maleate] |  |  |  |  |  |  | Either the monoclinic form, or the orthorhombic form or a mixture of polymorphs was obtained |  |

Second part, led by results:

| particle size distribution d(90) [1, 4] | particle size distribution d(10) [1, 5] | particle size distribution d(50) [1, 5] | particle size distribution d(90) [1, 5] | particle size distribution d(10) [1, 4] | particle size distribution d(50) [1, 4] | SMILES | polymorphic form obtained after micronization [2] | PXRD Pattern after Micronizing [3] |
| --- | --- | --- | --- | --- | --- | --- | --- | --- |
| 88 μm |  |  |  |  |  | CN1C[C@H]2c3ccccc3Oc3ccc(Cl)cc3[C@@H]2C1.O=C(O)/C=C\C(=O)O [Example 26, Asenapine Maleate] |  |  |
| 33.11 μm |  |  |  | 4.38 μm | 14.42 μm | CN1C[C@H]2c3ccccc3Oc3ccc(Cl)cc3[C@@H]2C1.O=C(O)/C=C\C(=O)O [Example 15, Asenapine Maleate Monoclinic Form] |  |  |
| 80.698 μm | 0.887 μm | 4.632 μm | 10.678 μm | 6.269 μm | 35.229 μm | CN1C[C@H]2c3ccccc3Oc3ccc(Cl)cc3[C@@H]2C1.O=C(O)/C=C\C(=O)O [Example 13, Asenapine Maleate] |  | complies with reference pattern of monoclinic polymorph |
